Data as given in paper PMC12970513, “Unsaturated Phosphorus Electrophiles to Probe Protein Tyrosine Phosphatases” (Angewandte Chemie (International Ed. in English), 2026).
*1 amine or outer side, *2 acyl side, *3 side chain or, on linkers, in order; H or OH if unused. Where a SMILES comes first, the peptide text is derived from it. [ ]: non-standard residue; d: D form. The star is where a group is joined. X1 = C#CP(=O)(O)Oc1ccc(C[C@H](N[*:1])C(=O)[*:2])cc1; X2 = C#CP(=O)(O)Nc1ccc(C[C@H](N[*:1])C(=O)[*:2])cc1; Biotin = O=C1N[C@H]2[C@H](CS[C@H]2CCCCC(=O)*)N1

What was measured:
[1] = Lysate labeling by fluorescence gel scanning, HEK293T; set-up: species or system human; settings: HEK293T lysate 2 mg/mL, 50 mM sodium succinate pH 6.0, 150 mM NaCl, 1 mM EDTA, 1 mM DTT, 1 h, R.T.
Description: Having identified suitable conditions, we aimed to compare our target‐specific peptide PO‐probe with a broad reactivity PTP probe in order to visualize the different reactivity patterns in human lysate. […] Using the previously reported buffer conditions, HEK293T cell lysate (50 mM sodium succinate, pH 6.0, 150 mM NaCl, 1 mM EDTA, 1 mM DTT) was incubated for 1 h with TMR‐BBP (100 µM).
For fluorescence gel scanning of TMR labeled probes samples resolved by SDS-PAGE and first visualized at a Bio-Rad imaging system equipped with a 532 nm laser for excitation. Afterwards, wherever applicable gels were stained with Coomassie brilliant blue.
For the comparison of the labeling pattern between TMR-PO and a general phosphatase probe (TMR-BBP) freshly lysed HEK293T cell lysate was adjusted to 2 mg/mL. […] For labeling with TMR-BBP cells were lysed in 50 mM sodium succinate buffer pH 6.0, 150 mM NaCl, 1 mM EDTA, and 1 mM DTT as previously reported.^[3] […] The reactions were incubated for 1 hour at room temperature and subsequently analyzed by fluorescence gel scanning.
A volume of 49 µL of each lysate was mixed with 1 µL of a 5 mM TMR-PO stock solution in DMSO and incubated for 1 hour at room temperature. Samples were resolved by SDS-PAGE and analyzed by fluorescence gel scanning.

[2] = Stability of bio-PN and bio-PO in HEK293T cell lysate by 31P NMR; assay type: in vitro ADME, human; settings: HEK293T lysate (1 mg/mL), 1 mM peptide, room temperature
Description: Next, we assessed the stability of the phosphonamidic and phosphonic acid in aqueous buffers at pH 2, pH 3.5, pH 7.4, pH 8.5, and pH 11. Therefore, SM‐PN and SM‐PO were added in the corresponding buffers and monitored for 48 h at room temperature via ^31P‐NMR with triphenylphosphinoxide (TPPO) as an internal standard (Figure S2). […] Furthermore, we evaluated the stability of the peptide probes bio‐PN and bio‐PO in human lysate for subsequent experiments. These peptides were added in HEK293T cell lysate, and changes in stability were recorded for 18 h via ^31P‐NMR, in which inorganic phosphate served as an internal standard. […] Nonetheless, both peptides display sufficient stability for follow‐up studies.
A solution of 480 µL of HEK293T cell lysate (1 mg/mL) was supplemented with 60 µL of D2O. To this, 60 µL of bio-PN or bio-PO (10 mM stock in DMSO, final concentration 1 mM) were added right before the start of the measurement. The mixtures were transferred to NMR tubes and one-dimensional ^31P-NMR spectra were recorded for each sample at room temperature, in intervals of 2.5 h over the course of 18 h on a Bruker AV-III 600 spectrometer. For analysis, the spectra were Fourier-transformed, baseline corrected and the intensity of the ^31P-NMR signal was obtained by integration.

In the case of “α-bromo(4-((N-5/6-TAMRA-aminomethyl)phenyl)methyl)phosphonic acid [TMR-BBP]”, the “labeling pattern in HEK293T lysate (TMR-BBP)” value [1] is reported as “labeled many proteins across the whole proteome”.

In the case of `C#CP(=O)(O)Oc1ccc(C[C@H](NC(=O)[C@H](CCC(=O)O)NC(=O)[C@H](CC(=O)O)NC(=O)[C@H](C)NC(=O)[C@H](CC(=O)O)NC(=O)CCCC[C@@H]2SC[C@@H]3NC(=O)N[C@@H]32)C(=O)N[C@@H](CC(C)C)C(=O)N[C@H](C(=O)N2CCC[C@H]2C(=O)N[C@@H](CCC(N)=O)C(=O)N[C@@H](CCC(N)=O)C(=O)NCC(N)=O)[C@@H](C)CC)cc1` [bio-PO] (Biotin-DADE[X1]LIPQQG-NH2), the “decay in HEK293T cell lysate” value ([2]; 18 h) is reported as “remains intact” and the “remaining intact in HEK293T cell lysate” value ([2]; 18 h, inorganic phosphate internal standard) is reported as “stayed unaltered”.

`C#CP(=O)(O)Nc1ccc(C[C@H](NC(=O)[C@H](CCC(=O)O)NC(=O)[C@H](CC(=O)O)NC(=O)[C@H](C)NC(=O)[C@H](CC(=O)O)NC(=O)CCCC[C@@H]2SC[C@@H]3NC(=O)N[C@@H]32)C(=O)N[C@@H](CC(C)C)C(=O)N[C@H](C(=O)N2CCC[C@H]2C(=O)N[C@@H](CCC(N)=O)C(=O)N[C@@H](CCC(N)=O)C(=O)NCC(N)=O)[C@@H](C)CC)cc1` [bio-PN] (Biotin-DADE[X2]LIPQQG-NH2) showed a remaining at 18 h, 1 mM ([2]; human, HEK293T cell lysate, inorganic phosphate internal standard, read-out: remaining intact in HEK293T cell lysate) of 80% and a metabolised at 18 h, 1 mM ([2]; human, HEK293T cell lysate, read-out: decay in HEK293T cell lysate) of 20%.
